This note sets out measurements from patent US20150353495A1 (PORTOLA PHARMACEUTICALS, INC., priority 2010, published 2015).

Format in all cases: biochemical
Experiment [1] deals with T1, TYK2 (Homo sapiens, UniProt P29597).
T1 construct: 5 μl of catalytic domain recombinant Kinase enzyme+Tyr peptide substrate (Invitrogen, CA); purchased Invitrogen
T1 sequence (P29597 897-1176 limits assumed): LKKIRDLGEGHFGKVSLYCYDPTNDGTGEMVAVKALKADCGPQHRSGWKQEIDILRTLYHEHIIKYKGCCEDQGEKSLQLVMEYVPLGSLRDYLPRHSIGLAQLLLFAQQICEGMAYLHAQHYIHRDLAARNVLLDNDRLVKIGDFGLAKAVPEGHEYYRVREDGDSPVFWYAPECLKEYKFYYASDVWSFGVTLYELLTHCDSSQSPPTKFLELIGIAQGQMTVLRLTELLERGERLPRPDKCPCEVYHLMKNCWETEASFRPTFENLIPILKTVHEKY
As to the kind of experiment: Z'-LYTE kinase assay TYK2. How it is done:
JAK and TYK2 tyrosine phosphorylation activity is measured using the Z′-LYTE™ Technology developed by Invitrogen Corporation (Carlsbad, Calif.). For JAK1, JAK2 and JAK3 the Z′-LYTE™ Kinase Assay Kit-Tyr6 Peptide (part number PV4122) was used. For TYK2 the Z′-LYTE™ Kinase Assay Kit-Tyr6 Peptide (part number PV3192) was used. The Z′-LYTE™ biochemical assay employs a fluorescence resonance energy transfer (FRET) coupled-enzyme format and is based on the differential sensitivity of phosphorylated and non-phosphorylated peptides to proteolitic cleavage. The assay uses a synthetic peptide substrate that is labelled with a donor fluorophore (coumarin) and an acceptor fluorophore (fluorescein) that make up a FRET pair. In the primary reaction (the Kinase Reaction), the kinase transfers the γ-phosphate of ATP to a single tyrosine residue on the substrate, while the presence of a kinase inhibitor in the primary reaction suppresses phosphorylation. In the secondary reaction (the Development Reaction), a site-specific protease (the Development Reagent) is added. The development buffer quenches the Kinase Reaction, while the protease recognizes and cleaves non-phosphorylated Z′-LYTE™ peptide substrate. Cleavage disrupts FRET between the donor and acceptor fluorophores on the non-phosphoryleted substrate, while uncleaved, phosphorylated substrate maintains FRET.
To test the ability of candidate molecules to inhibit JAK tyrosine phosphorylation activity, molecules are reconstituted in 100% DMSO and serially diluted 1:10 in polypropylene v-bottom microtiter plates. The candidate molecules are then diluted 1:25 into kinase buffer and 2.5 μl transferred into duplicate wells of a 384 well low volume black microtiter assay plate (Corning, USA). The final DMSO concentration in the assay is 1%. The kinase reaction contains 2.5 μl of a candidate molecule, 5 μl of catalytic domain recombinant Kinase enzyme+Tyr peptide substrate (Invitrogen, CA) and 2.5 μl ATP (Invitrogen, CA). The kinase reaction is allowed to procede for 1 hour at room temperature. The protease reaction is initiated by the addition of 5 μl Development Reagent (Invitrogen, CA). After 1 hour incubation at room temperature the fluorescence is measured using a FlexStation plate reader (Molecular Devices, Sunnyvale, Calif.). The reader settings used are as follows: Fluorescence mode, endpoint, top read, excitation 400 nm, emission 445 nm and 520 nm, Auto Cutoff 435 nm and 515 nm, PMT sensitivity high, 6 reads per well Inhibition of JAK kinase activity is calculated as the percent phosphorylation of substrate in the presence of inhibitor compared to the percent phosphorylation of substrate in the absence of inhibitor. IC50's were derived using Xlfit 4.3 (IDBS, UK), 4 parameter logistic model 205: Y=(A+4B-A)/(1+((C/x)AD)))).

Experiment [2] deals with T2, JAK1 (Homo sapiens, UniProt P23458).
T2 construct: 5 μl of catalytic domain recombinant Kinase enzyme+Tyr peptide substrate (Invitrogen, CA); purchased Invitrogen
As to the kind of experiment: Z'-LYTE kinase assay JAK1. The essentials:
(§1)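 Z′-LYTE FRET, Tyr6 peptide, recombinant catalytic domain + ATP, 1 h RT, 1% DMSO final, duplicates; protease development 1 h RT; fluorescence read.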

Experiment [3] concerns the target T3, JAK2 (Homo sapiens, UniProt O60674).
T3 construct: 5 μl of catalytic domain recombinant Kinase enzyme+Tyr peptide substrate (Invitrogen, CA); purchased Invitrogen
As to the kind of experiment: Z'-LYTE kinase assay JAK2. The essentials:
as §1

The target in experiment [4] is T4, JAK3 (Homo sapiens, UniProt P52333).
T4 construct: 5 μl of catalytic domain recombinant Kinase enzyme+Tyr peptide substrate (Invitrogen, CA); purchased Invitrogen
As to the kind of experiment: Z'-LYTE kinase assay JAK3. The procedure, abridged:
as §1

T2 sequence (P23458 875-1153 limits assumed): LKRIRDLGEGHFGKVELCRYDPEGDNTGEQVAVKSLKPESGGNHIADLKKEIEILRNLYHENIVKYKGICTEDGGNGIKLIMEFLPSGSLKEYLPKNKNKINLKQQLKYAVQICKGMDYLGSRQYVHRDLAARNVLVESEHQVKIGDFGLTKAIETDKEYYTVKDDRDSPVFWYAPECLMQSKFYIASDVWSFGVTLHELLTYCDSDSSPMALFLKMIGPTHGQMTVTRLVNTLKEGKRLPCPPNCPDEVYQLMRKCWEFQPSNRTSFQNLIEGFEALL
T4 sequence (P52333 822-1111 limits assumed): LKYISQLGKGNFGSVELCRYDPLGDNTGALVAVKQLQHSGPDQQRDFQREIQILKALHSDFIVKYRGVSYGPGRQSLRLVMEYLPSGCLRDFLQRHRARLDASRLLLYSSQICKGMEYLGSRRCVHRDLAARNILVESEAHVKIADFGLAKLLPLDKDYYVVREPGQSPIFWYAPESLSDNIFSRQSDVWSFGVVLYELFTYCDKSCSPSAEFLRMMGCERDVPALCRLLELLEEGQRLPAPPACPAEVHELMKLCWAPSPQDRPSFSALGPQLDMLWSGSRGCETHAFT
T3 sequence (O60674 849-1124 limits assumed): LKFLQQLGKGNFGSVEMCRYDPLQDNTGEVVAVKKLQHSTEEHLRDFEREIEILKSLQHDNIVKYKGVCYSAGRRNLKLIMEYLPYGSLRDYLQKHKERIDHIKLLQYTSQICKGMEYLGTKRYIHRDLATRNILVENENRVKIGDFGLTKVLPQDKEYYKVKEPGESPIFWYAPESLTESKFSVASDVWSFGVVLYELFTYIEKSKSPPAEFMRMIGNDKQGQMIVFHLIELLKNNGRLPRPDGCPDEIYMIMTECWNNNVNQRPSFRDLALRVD

What is called IC50 is the concentration needed to halve the response being measured. Lower therefore signals greater potency. On to `CC(=O)N1CCN(c2ccc(Nc3cc(NCC(C)C)c(C(N)=O)cn3)cc2)CC1` [Example 235, 6-(4-(4-acetylpiperazin-1-yl)phenylamino)-4-(isobutylamino)nicotinamide], for which the IC50 in experiment [1] lay in the range of 10 to 100 nM; in experiment [2] it was 100 to 1000 nM; in experiment [3] it was 100 to 1000 nM; in experiment [4], 10 to 100 nM.
With `CC(=O)N1CCN(c2ccc(Nc3cc(NCC4CC4)c(C(N)=O)cn3)cc2)CC1` [Example 238, 6-(4-(4-acetylpiperazin-1-yl)phenylamino)-4-(cyclopropylmethylamino)nicotinamide], the IC50 is 100 to 1000 nM in experiment [1], > 1000 nM in experiment [2], 100 to 1000 nM in experiment [3] and 100 to 1000 nM in experiment [4].
`CC(=O)N1CCN(c2ccc(Nc3cc(NC4CCCC4)c(C(N)=O)cn3)cc2)CC1` [Example 239, 6-(4-(4-acetylpiperazin-1-yl)phenylamino)-4-(cyclopentylamino)nicotinamide]: the IC50 was 10 to 100 nM in experiment [1], 100 to 1000 nM in experiment [2], 100 to 1000 nM in experiment [3] and 10 to 100 nM in experiment [4].
Regarding `CC(=O)N1CCN(c2ccc(Nc3cc(NCC4CCC4)c(C(N)=O)cn3)cc2)CC1` [Example 243, 6-(4-(4-acetylpiperazin-1-yl)phenylamino)-4-(cyclobutylmethylamino)nicotinamide], the IC50 lay in the range of 10 to 100 nM in experiment [1], 100 to 1000 nM in experiment [2], 100 to 1000 nM in experiment [3] and 10 to 100 nM in experiment [4].
`CC(=O)N1CCN(c2ccc(Nc3cc(NCc4ccc(F)cc4)c(C(N)=O)cn3)cc2)CC1` [Example 252, 6-(4-(4-acetylpiperazin-1-yl)phenylamino)-4-(4-fluorobenzylamino)nicotinamide]: the IC50 in experiment [1] is > 1000 nM; in experiment [2], > 1000 nM; in experiment [3] it was 100 to 1000 nM; in experiment [4] it was 10 to 100 nM.
As for `CC(=O)N1CCN(c2ccc(Nc3cc(NC4Cc5ccccc5C4)c(C(N)=O)cn3)cc2)CC1` [Example 253, 6-(4-(4-acetylpiperazin-1-yl)phenylamino)-4-(2,3-dihydro-1H-inden-2-ylamino)nicotinamide], the IC50 in experiment [1] is 100 to 1000 nM; in experiment [2] it was > 1000 nM; in experiment [3], 100 to 1000 nM; in experiment [4], 100 to 1000 nM.
`CC(=O)N1CCN(c2ccc(Nc3cc(NCc4ccc5c(c4)OCO5)c(C(N)=O)cn3)cc2)CC1` [Example 254, 6-(4-(4-acetylpiperazin-1-yl)phenylamino)-4-(benzo[d][1,3]dioxol-5-ylmethylamino)nicotinamide]: the IC50 was > 1000 nM in experiment [1], > 1000 nM in experiment [2], 100 to 1000 nM in experiment [3] and 10 to 100 nM in experiment [4].
In the case of `CC(=O)N1CCC[C@H](CNc2cc(Nc3ccc(C(=O)N4CCCC4)cc3)ncc2C(N)=O)C1` [Example 265, (R)-4-((1-acetylpiperidin-3-yl)methylamino)-6-(4-(pyrrolidine-1-carbonyl)phenylamino)nicotinamide], the IC50 was 100 to 1000 nM in experiment [1], > 1000 nM in experiment [2], 100 to 1000 nM in experiment [3] and 10 to 100 nM in experiment [4].
Consider `Cc1cc(Nc2cc(NCc3cncc(F)c3)c(C(N)=O)cn2)ccc1C(=O)N(C)C` [Example 297], for which the IC50 in experiment [1] was 100 to 1000 nM; in experiment [2], 100 to 1000 nM; in experiment [3], 10 to 100 nM; in experiment [4], 1 to 10 nM.
In the case of `NC(=O)c1cnc(Nc2cccc(OCCN3CCCC3)c2)cc1NC1(c2ccccc2)CC1` [Example 363, 4-(1-phenylcyclopropylamino)-6-(3-(2-(pyrrolidin-1-yl)ethoxy)phenylamino)nicotinamide], the 50% inhibitory concentration (IC50) was > 1000 nM in experiment [1], > 1000 nM in experiment [2], 100 to 1000 nM in experiment [3] and 10 to 100 nM in experiment [4].
`CS(=O)(=O)N1CCN(c2ccc(Nc3cc(NC4(c5ccccc5)CC4)c(C(N)=O)cn3)cc2)CC1` [Example 364, 6-(4-(4-(methylsufonly)piperazin-1-yl)phenylamino)-4-(1-phenylcyclopropylamino)nicotinamide]: the IC50 was > 1000 nM in experiment [1], > 1000 nM in experiment [2], 100 to 1000 nM in experiment [3] and 10 to 100 nM in experiment [4].
As to `CN(C)C(=O)COc1cccc(Nc2cc(NC3(c4ccccc4)CC3)c(C(N)=O)cn2)c1` [Example 365, 6-(3-(2-(dimethylamino)-2-oxoethoxy)phenylamino)-4-(1-phenylcyclopropylamino)nicotinamide], the IC50 in experiment [1] is > 1000 nM; in experiment [2], > 1000 nM; in experiment [3], > 1000 nM; in experiment [4], 10 to 100 nM.
Regarding `CN(C)C(=O)COc1ccc(Nc2cc(NC3(c4ccccc4)CC3)c(C(N)=O)cn2)cc1` [Example 366, 6-(4-(2-(dimethylamino)-2-oxoethoxy)phenylamino)-4-(1-phenylcyclopropylamino)nicotinamide], the IC50 is > 1000 nM in experiment [1], > 1000 nM in experiment [2], 100 to 1000 nM in experiment [3] and 10 to 100 nM in experiment [4].
As to `NC(=O)c1cnc(Nc2cccc(N3CCNCC3)c2)cc1NC1(c2ccccc2)CC1` [Example 367, 4-(1-phenylcyclopropylamino)-6-(3-(piperazin-1-yl)phenylamino)nicotinamide], the IC50 in experiment [1] is > 1000 nM; in experiment [2], > 1000 nM; in experiment [3], 100 to 1000 nM; in experiment [4], 10 to 100 nM.
As to `NC(=O)c1cnc(Nc2ccc(N3CCOCC3)cc2)c(Cl)c1NCc1cccc(F)c1` [Example 377, 5-chloro-4-(3-fluorobenzylamino)-6-(4-morpholinophenylamino)nicotinamide], the IC50 in experiment [1] is > 1000 nM; in experiment [2], > 1000 nM; in experiment [3] it was > 1000 nM; in experiment [4] it was 100 to 1000 nM.
For the compound `N#CCOc1ccc(Nc2cc(NCc3ccccc3)c(C(N)=O)cn2)cc1` [Example 384], the IC50 in experiment [1] is > 1000 nM; in experiment [2], 100 to 1000 nM; in experiment [3], 100 to 1000 nM; in experiment [4], 1 to 10 nM.
Turning to `N#CCCc1ccc(Nc2cc(NCc3ccccc3)c(C(N)=O)cn2)cc1` [Example 386], the IC50 in experiment [1] was in the range of 100 to 1000 nM; in experiment [2] it was 100 to 1000 nM; in experiment [3] it was 100 to 1000 nM; in experiment [4], 1 to 10 nM.
`COc1cc(Nc2cc(NCc3ccccc3)c(C(N)=O)cn2)ccc1C(=O)N(C)C` [Example 436, 4-(benzylamino)-6-(4-(dimethylcarbamoyl)-3-methoxyphenylamino)nicotinamide]: the IC50 in experiment [1] was 100 to 1000 nM; in experiment [2] it was > 1000 nM; in experiment [3], 100 to 1000 nM; in experiment [4] it was 1 to 10 nM.
Consider `CN(C)C(=O)c1ccc(Nc2cc(NCc3ccccc3)c(C(N)=O)cn2)cc1Cl` [Example 437, 4-(benzylamino)-6-(3-chloro-4-(dimethylcarbamoyl)phenylamino)nicotinamide], for which the IC50 in experiment [1] is 100 to 1000 nM; in experiment [2] it was > 1000 nM; in experiment [3], 100 to 1000 nM; in experiment [4], 1 to 10 nM.
For the compound `Cc1cc(Nc2cc(NCc3ccccc3)c(C(N)=O)cn2)ccc1C(=O)N(C)C` [Example 438, 4-(benzylamino)-6-(4-(dimethylcarbamoyl)-3-methylphenylamino)nicotinamide], the IC50 in experiment [1] fell in the range of 100 to 1000 nM; in experiment [2], 100 to 1000 nM; in experiment [3], 10 to 100 nM; in experiment [4], 1 to 10 nM.
For the compound `CC(=O)N1CCC[C@H](CNc2cc(Nc3ccc(C(=O)N(C)C)c(C)c3)ncc2C(N)=O)C1` [Example 443], the IC50 in experiment [1] is 100 to 1000 nM; in experiment [2] it was > 1000 nM; in experiment [3], 100 to 1000 nM; in experiment [4] it was 1 to 10 nM.
